{
  "source": "patent US11891415B2",
  "about": "“Depsipeptides and uses thereof” (NovoBiotic Pharmaceuticals, LLC, priority 2017, dated 2024)",
  "key": {"S. aureus ATCC 33591": {"system": "S. aureus ATCC 33591", "assay": "Neutropenic mouse thigh infection model", "format": "in vivo", "conditions": "single dose of 50 mg/kg, thigh load at 26 hours", "procedure": "The compound of Formula (III) was next evaluated in a neutropenic mouse thigh infection model against S. aureus ATCC 33591. For the study, mice challenged with S. aureus ATCC 33591 were intravenously administered two 5 mg/kg, 10 mg/kg, 20 mg/kg and 30 mg/kg doses of the compound of Formula (III) at 2 and 4 hours post-infection, or vancomycin as a single dose of 50 mg/kg as a control. The bacterial load in the thigh at 26 hours post-infection was measured."}, "MRSA ATCC 33591": {"system": "MRSA ATCC 33591", "assay": "Mouse septicemia model", "conditions": "CD-1 female mice, MRSA ATCC 33591, 2.5 mg/kg intravenous one hour post infection"}},
  "data": [
    {"smiles": "CN[C@H](CC(C)C)C(=O)N[C@H]1C(=O)N[C@@H](CC(N)=O)C(=O)N[C@H]2C(=O)N[C@H]3C(=O)N[C@H](C(=O)N[C@H](C(=O)O)c4cc(O)cc(O)c4-c4cc3ccc4O)[C@H](O)c3ccc(c(Cl)c3)Oc3cc2cc(c3O[C@@H]2O[C@H](CO)[C@@H](O)[C@H](O)[C@H]2O[C@H]2C[C@](C)(N)[C@H](O)[C@H](C)O2)Oc2ccc(cc2Cl)[C@H]1O", "note": "[vancomycin]", "values": [
      {"measurement": "CFU reduction from the 2 hour infection controls", "setting": "S. aureus ATCC 33591", "result": 0.54, "unit": "log10 CFU"},
      {"measurement": "CFU reduction from the 26 hour infection controls", "setting": "S. aureus ATCC 33591", "result": 3.65, "unit": "log10 CFU"},
      {"measurement": "survival", "setting": "MRSA ATCC 33591", "result": "all survived"}
    ]}
  ]
}
